Biological target: Recombinant Human Enteropeptidase (Homo sapiens (Human), UniProt P98073)
Assay: Enteropeptidase Inhibition Assay
Assay type: biochemical
Settings: substrate Acetyl-Asp-Asp-Asp-Asp-Lys-AFC 30 μM, 30° C., 1 hour; Ki calculated from IC50 using Cheng-Prusoff equation
Procedure: Enteropeptidase Inhibition Assay
The inhibitory activity of the enteropeptidase inhibitor synthesized using the purified Recombinant Human Enteropeptidase and the substrate Acetyl-Asp-Asp-Asp-Asp-Lys-AFC (BioVision) was measured. 7.2 ng/mL of Enteropeptidase diluted with a buffer (20 mM Tris, 50 mM NaCl, pH 7.5) in a 96 well plate (Costar), 30 μM of Acetyl-Asp-Asp-Asp-Asp-Lys-AFC, several concentrations of Enteropeptidase inhibitors (1% DMSO concentration) were dispensed such that a final volume was 100 μL, and then the enzyme reaction was carried out at 30° C. for 1 hour. At this time, 1% DMSO, a substrate and Enteropeptidase instead of the compound were dispensed onto positive control wells, and 1% DMSO and a substrate were dispensed onto negative control wells. The enzyme reaction was […] using an excitation wavelength of 380 nm and an emission wavelength of 500 nm in a fluorescence spectrometer, and then the rate of increase in fluorescence (milli-units per min) between 20 and 60 minutes was measured.
The fluorescence measurement values reduced by the inhibitor diluted at each concentration were converted into relative values % of the positive control group (100% reactivity) and the negative control group (0% reactivity), and used to calculate IC50 values. IC50 is the concentration of the inhibitor that inhibits the enzyme activity by 50%, and was calculated using PRISM (GraphPad). Ki values were calculated from the IC50 values using Cheng-Prusoff equation.

Sequence of Recombinant Human Enteropeptidase (P98073 whole entry): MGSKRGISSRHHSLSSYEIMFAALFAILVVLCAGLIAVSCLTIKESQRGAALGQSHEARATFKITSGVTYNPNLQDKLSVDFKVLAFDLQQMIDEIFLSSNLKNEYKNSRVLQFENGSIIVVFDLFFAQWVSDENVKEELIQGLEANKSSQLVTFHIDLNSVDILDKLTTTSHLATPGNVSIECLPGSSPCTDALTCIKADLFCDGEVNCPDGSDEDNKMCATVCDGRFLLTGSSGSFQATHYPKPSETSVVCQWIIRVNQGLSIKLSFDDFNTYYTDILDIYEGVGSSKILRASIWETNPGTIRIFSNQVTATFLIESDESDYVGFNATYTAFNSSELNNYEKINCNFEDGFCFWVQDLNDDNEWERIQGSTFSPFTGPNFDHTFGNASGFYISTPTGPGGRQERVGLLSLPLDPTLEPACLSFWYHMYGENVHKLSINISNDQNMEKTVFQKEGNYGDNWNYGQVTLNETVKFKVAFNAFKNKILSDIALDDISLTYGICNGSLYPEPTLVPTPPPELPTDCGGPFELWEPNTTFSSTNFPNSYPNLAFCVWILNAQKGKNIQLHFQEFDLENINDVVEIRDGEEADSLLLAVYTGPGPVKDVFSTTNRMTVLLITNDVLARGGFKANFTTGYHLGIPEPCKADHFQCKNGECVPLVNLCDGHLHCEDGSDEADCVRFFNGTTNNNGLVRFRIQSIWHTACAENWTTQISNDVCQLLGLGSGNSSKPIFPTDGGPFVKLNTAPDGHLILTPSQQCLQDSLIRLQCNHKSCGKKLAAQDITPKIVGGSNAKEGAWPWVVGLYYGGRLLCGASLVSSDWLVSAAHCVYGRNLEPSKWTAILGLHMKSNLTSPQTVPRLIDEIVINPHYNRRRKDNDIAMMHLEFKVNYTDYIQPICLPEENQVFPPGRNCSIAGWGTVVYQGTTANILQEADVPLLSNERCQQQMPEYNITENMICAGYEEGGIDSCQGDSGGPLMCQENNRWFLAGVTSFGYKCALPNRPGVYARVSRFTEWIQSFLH

Row | Ki | SMILES
1 | 21 nM | COC(=O)CCCN(C)c1ncc(C(=O)Oc2ccc(C(=N)N)cc2)s1 [Example 11, 4-Carbamimidoylphenyl 2-((4-methoxy-4-oxobutyl)(methyl)amino)thiazole-5-carboxylate]
2 | 9.7 nM | CCN(CCC(=O)OC)c1ncc(C(=O)Oc2ccc(C(=N)N)cc2)s1 [Example 12, 4-Carbamimidoylphenyl 2-(ethyl(3-methoxy-3-oxopropyl)amino)thiazole-5-carboxylate]
3 | 4.8 nM | N=C(N)c1ccc(OC(=O)c2cnc(NCCC(=O)O)s2)cc1 [Example 13]
4 | 5.1 nM | CCN(CCC(=O)O)c1ncc(C(=O)Oc2ccc(C(=N)N)cc2)s1 [Example 14]
5 | 5.7 nM | CN(CCCC(=O)O)c1ncc(C(=O)Oc2ccc(C(=N)N)cc2)s1 [Example 15]
6 | 19 nM | COC(=O)C1CCN(c2ncc(C(=O)Oc3ccc(C(=N)N)cc3)s2)C1 (stereo not shown) [Example 16, 4-Carbamimidoylphenyl 2-(3-(methoxycarbonyl)pyrrolidin-1-yl)thiazole-5-carboxylate]
7 | 5.4 nM | N=C(N)c1ccc(OC(=O)c2cnc(N3CCC(C(=O)O)C3)s2)cc1 (stereo not shown) [Example 17, 1-(5-((4-Carbamimidoylphenoxy)carbonyl)thiazol-2-yl)pyrrolidine-3-carboxylic Acid]
8 | 8.9 nM | COC(=O)C(C)(C)CN(C)c1ncc(C(=O)Oc2ccc(C(=N)N)cc2)s1 [Example 18, 4-Carbamimidoylphenyl 2-((3-methoxy-2,2-dimethyl-3-oxopropyl)(methyl)amino)thiazole-5-carboxylate]
9 | 4.8 nM | CN(CC(C)(C)C(=O)O)c1ncc(C(=O)Oc2ccc(C(=N)N)cc2)s1 [Example 19]
10 | 2.5 nM | CCN(CCC(=O)OC)c1ncc(C(=O)Oc2ccc(C(=N)N)cc2F)s1 [Example 20, 4-Carbamimidoyl-2-fluorophenyl 2-(ethyl(3-methoxy-3-oxopropyl)amino) thiazole-5-carboxylate]

Continued, compound first:

Row | SMILES | Ki
11 | N=C(N)c1ccc(OC(=O)c2cnc(N3CCC(C(=O)O)CC3)s2)cc1 [Example 2, 1-(5-((4-Carbamimidoylphenoxy)carbonyl)thiazol-2-yl)piperidine-4-carboxylic Acid] | 4.9 nM
12 | COC(=O)C1CCN(c2ncc(C(=O)Oc3ccc(C(=N)N)cc3)s2)CC1 [Example 3, 4-Carbamimidoylphenyl 2-(4-(methoxycarbonyl)piperidin-1-yl)thiazole-5-carboxylate] | 17 nM
13 | COC(=O)C1CCN(c2ncc(C(=O)Oc3ccc(C(=N)N)cc3F)s2)CC1 [Example 4, 4-Carbamimidoyl-2-fluorophenyl 2-(4-(methoxycarbonyl)piperidin-1-yl)thiazole-5-carboxylate] | 0.92 nM
14 | COC(=O)C1CCN(c2ncc(C(=O)Oc3ccc(NC(=N)N)cc3)s2)CC1 [Example 5, 4-Guanidinophenyl 2-(4-(methoxycarbonyl)piperidin-1-yl)thiazole-5-carboxylate] | 510 nM
15 | N=C(N)Nc1ccc(OC(=O)c2cnc(N3CCC(C(=O)O)CC3)s2)cc1 [Example 6, 1-(5-((4-Guanidinophenoxy)carbonyl)thiazol-2-yl)piperidine-4-carboxylic Acid] | 220 nM
16 | N=C(N)c1ccc(OC(=O)c2cnc(N3CCC(C(=O)O)CC3)s2)c(F)c1 [Example 7, 1-(5-((4-Carbamimidoyl-2-fluorophenoxy)carbonyl)thiazol-2-yl)piperidine-4-carboxylic Acid] | 0.6 nM
17 | COC(=O)CCN(C)c1ncc(C(=O)Oc2ccc(C(=N)N)cc2)s1 [Example 8, 4-Carbamimidoylphenyl 2-((3-methoxy-3-oxopropyl)(methyl)amino)thiazole-5-carboxylate] | 28 nM
18 | CN(CCC(=O)O)c1ncc(C(=O)Oc2ccc(C(=N)N)cc2)s1 [Example 9] | 28 nM
19 | COC(=O)CCNc1ncc(C(=O)Oc2ccc(C(=N)N)cc2)s1 [Example 10, 4-Carbamimidoylphenyl 2-((3-methoxy-3-oxopropyl)amino)thiazole-5-carboxylate] | 11 nM

Reference: patent US11447480B2, “Compound exhibiting enteropeptidase inhibitory activity” (LG CHEM, LTD., priority 2018, dated 2022)
